For orientation: IC50 means the midpoint of a concentration-inhibition curve.

Molecules are shown by their SMILES.

Consider eleven compounds from patent US10189839B2, “Tricyclic imidazole compounds as inhibitors of tryptophan hydroxylase” (ACTELION PHARMACEUTICALS LTD, priority 2013, dated 2019).

The target of one assay is T1, full length human TPH1 (Homo sapiens, UniProt P17752).
T1 construct: To generate the enzyme, full length human TPH1 is cloned into the plasmid pET20b(+); made in house; host or cells: E. coli
T1 sequence (P17752 1-444): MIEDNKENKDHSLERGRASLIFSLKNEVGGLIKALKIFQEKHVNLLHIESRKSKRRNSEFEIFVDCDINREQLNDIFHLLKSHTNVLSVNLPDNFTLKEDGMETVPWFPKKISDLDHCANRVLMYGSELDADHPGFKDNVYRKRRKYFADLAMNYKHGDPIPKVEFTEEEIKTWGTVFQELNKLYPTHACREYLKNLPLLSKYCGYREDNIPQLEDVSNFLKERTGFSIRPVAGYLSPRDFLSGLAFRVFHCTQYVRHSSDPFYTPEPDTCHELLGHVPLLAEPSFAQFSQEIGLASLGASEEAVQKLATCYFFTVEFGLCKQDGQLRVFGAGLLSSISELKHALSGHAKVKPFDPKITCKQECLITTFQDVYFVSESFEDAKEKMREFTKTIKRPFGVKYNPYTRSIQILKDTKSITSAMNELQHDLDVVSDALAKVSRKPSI
The experiment in a line: Biochemical in vitro assay using fluorescence readout (TPH1 enzyme activity). The conditions noted are these: Table 1, mean where determined several times. The source says: Inhibitory activities on tryptophan hydroxylase 1 have been measured for each example compound using the following procedure:
Biochemical In Vitro Assay Using Fluorescence Readout
To generate the enzyme, full length human TPH1 is cloned into the plasmid pET20b(+) (Novagen) and expressed in E. coli. The bacterial cells are ruptured by sonication on ice and the lysate is cleared by centrifugation. The resulting protein in the pellet is re-extracted and TPH1 is purified from the obtained lysate by affinity chromatography using a pterin cosubstrate analog immobilized to the resin of the column. The protein is further purified by size exclusion chromatography to remove protein aggregates. The activity of TPH1 is determined by using a fluorescence assay. The enzyme activity assay is carried out at 15° C. with atmosphere oxygen for the duration of 60 minutes in a volume of 64 μl. The reaction is carried out in a 0.1M Tris-HCl buffer, adjusted to pH 7.6, containing 1 mM DTT, 0.2 mg/ml catalase, 100 μM (±)-6-methyl-5,6,7,8-tetrahydropterine dihydrochloride, 40 μM L-tryptophan, and 40-80 nM of TPH1. The reaction is started by bringing together L-tryptophan with all the other reaction substituents and stopped by quenching with perchloric acid (HClO4). The amount of 5-hydroxy-L-tryptophan produced during the enzymatic reaction is determined by fluorescence readout. Fluorescence, as determined at 540 nm when excited at 300 nm wavelength, increases proportionally to the 5-hydroxy-L-tryptophan formed. Compounds are prepared as 10 mM stock solution in DMSO, then diluted in 384-well plates using DMSO followed by a transfer of the dilutions into the assay plate. Fluorescence is measured for each well and the fluorescence at 540 nm wavelength is compared to the fluorescence of the vehicle in place of compound. Inhibitory activities of example compounds with respect to the TPH1 protein are determined by calculating the IC50 value (the concentration of compound needed to inhibit 50% of the enzyme activity). The calculated IC50 values may fluctuate depending on the daily biochemical assay performance. Fluctuations of this kind are known to those skilled in the art. In the case where IC50 values have been determined several times for the same compound, the mean is given.
On to `CN(C)c1ccc(OCC(=O)N2CCc3nc4n(c3C2c2ccc(Cl)cc2F)CCCC4)c(Cl)n1` (centres unmarked) [Example 1.1.21, 1-(1-(4-chloro-2-fluorophenyl)-3,4,6,7,8,9-hexahydroimidazo[1,2-a:5,4-c′]dipyridin-2(1H)-yl)-2-((2-chloro-6-(dimethylamino)pyridin-3-yl)oxy)ethan-1-one], for which the concentration for half-maximal inhibition (IC50) was 13 nM. For the compound `O=C(NC1CC1)c1ccc(OCC(=O)N2CCc3nc4n(c3C2c2ccc(Cl)cc2F)CCCC4)c(C2CC2)n1` (centres unmarked) [Example 1.1.22, 5-(2-(1-(4-chloro-2-fluorophenyl)-3,4,6,7,8,9-hexahydroimidazo[1,2-a:5,4-c′]dipyridin-2(1H)-yl)-2-oxoethoxy)-N,6-dicyclopropylpicolinamide], inhibition was half-maximal at 10 nM (IC50). The same measure, in the same setting: the result for `CN(CC(F)(F)F)c1ccc(OCC(=O)N2CCc3nc4n(c3C2c2ccc(Cl)cc2F)CCCC4)c(Cl)n1` (centres unmarked) [Example 1.1.23, 1-(1-(4-chloro-2-fluorophenyl)-3,4,6,7,8,9-hexahydroimidazo[1,2-a:5,4-c′]dipyridin-2(1H)-yl)-2-((2-chloro-6-(methyl(2,2,2-trifluoroethyl)amino)pyridin-3-yl)oxy)ethan-1-one] reads 9 nM; that for `COCCN(C)c1ccc(OCC(=O)N2CCc3nc4n(c3C2c2ccc(Cl)cc2F)CCCC4)c(Cl)n1` (centres unmarked) [Example 1.1.24, 1-(1-(4-chloro-2-fluorophenyl)-3,4,6,7,8,9-hexahydroimidazo[1,2-a:5,4-c′]dipyridin-2(1H)-yl)-2-((2-chloro-6-((2-methoxyethyl)(methyl)amino)pyridin-3-yl)oxy)ethan-1-one], 62 nM; that for `CN(C)C(=O)c1ccc(OC(C)(C)C(=O)N2CCc3nc4n(c3C2c2ccc(Cl)cc2F)CCCC4)c(Cl)n1` (centres unmarked) [Example 1.1.25, 6-chloro-5-((1-(1-(4-chloro-2-fluorophenyl)-3,4,6,7,8,9-hexahydroimidazo[1,2-a:5,4-c′]dipyridin-2(1H)-yl)-2-methyl-1-oxopropan-2-yl)oxy)-N,N-dimethylpicolinamide], 146 nM. In turn, `CN(C)C(=O)c1ccc(OC2(C(=O)N3CCc4nc5n(c4C3c3ccc(Cl)cc3F)CCCC5)CC2)c(Cl)n1` (centres unmarked) [Example 1.1.26, 6-chloro-5-(1-(1-(4-chloro-2-fluorophenyl)-1,2,3,4,6,7,8,9-octahydroimidazo[1,2-a:5,4-c′]dipyridine-2-carbonyl)cyclopropoxy)-N,N-dimethylpicolinamide] registered a half-maximal inhibitory concentration (IC50) of 51 nM. On the same count and under the same terms, in the case of `CS(=O)(=O)c1ccc(OCC(=O)N2CCc3nc4n(c3C2c2ccc(Cl)cc2F)CCCC4)c(Cl)n1` (centres unmarked) [Example 1.1.28, 1-(1-(4-chloro-2-fluorophenyl)-3,4,6,7,8,9-hexahydroimidazo[1,2-a:5,4-c′]dipyridin-2(1H)-yl)-2-((2-chloro-6-(methylsulfonyl)pyridin-3-yl)oxy)ethan-1-one] it was 90 nM. With `CN(C)S(=O)(=O)c1ccc(OCC(=O)N2CCc3nc4n(c3C2c2ccc(Cl)cc2F)CCCC4)c(Cl)n1` (centres unmarked) [Example 1.1.29, 6-chloro-5-(2-(1-(4-chloro-2-fluorophenyl)-3,4,6,7,8,9-hexahydroimidazo[1,2-a:5,4-c′]dipyridin-2(1H)-yl)-2-oxoethoxy)-N,N-dimethylpyridine-2-sulfonamide], the IC50 came out at 129 nM.

`Cc1ccc(C2c3c(nc4n3CCCC4)CCN2C(=O)COc2ccc(NS(C)(=O)=O)nc2Cl)c(F)c1` (centres unmarked) [Example 1.2.1, N-(6-chloro-5-(2-(1-(2-fluoro-4-methylphenyl)-3,4,6,7,8,9-hexahydroimidazo[1,2-a:5,4-c′]dipyridin-2(1H)-yl)-2-oxoethoxy)pyridin-2-yl)methanesulfonamide] returned an IC50 of 41 nM. The same measure, in the same setting: in the case of `Cc1ccc(C2c3c(nc4n3CCCC4)CCN2C(=O)COc2ccc(-c3ncco3)nc2Cl)c(F)c1` (centres unmarked) [Example 1.2.2, 2-((2-chloro-6-(oxazol-2-yl)pyridin-3-yl)oxy)-1-(1-(2-fluoro-4-methylphenyl)-3,4,6,7,8,9-hexahydroimi-dazo[1,2-a:5,4-c′]dipyridin-2(1H)-yl)ethanone] it was 11 nM.

The same assay, now with this note: Table 2.
Take `CN(CCO)c1ccc(OCC(=O)N2CCc3nc4n(c3C2c2ccc(Cl)cc2F)CCCC4)c(Cl)n1` (centres unmarked) [Example 1.1.27]: it took 15 nM to reach half-maximal inhibition (IC50).
